The structures appear in SMILES notation.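 Tested at 5 concentrations; 48 h exposure; 96-well plates; endpoints linearly interpolated, else capped at highest concentration. TGI marks complete inhibition of growth.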

Test systems include A498 renal; A549 NSCLC; CAKI-1 renal; COLO 205 colon; SF-268 CNS; SNB-19 CNS; UACC-257 melanoma; UACC-62 melanoma.
Holding throughout (assay): NCI-60 cell line screen, 48 h

For `COc1cc(C)c(C(=O)/C=C/c2cc(OC)c(O)c(OC)c2)cc1O`, the TGI in the experiment on A498 renal was 97.5 µM; with A549 NSCLC it was above 100 µM; in the experiment on CAKI-1 renal it was above 100 µM; in the experiment on COLO 205 colon it was above 100 µM; with SF-268 CNS, 78.4 µM; in the experiment on SNB-19 CNS, 44.5 µM. The TGI in the experiment with UACC-257 melanoma was above 100 µM; in the experiment on UACC-62 melanoma, 44.1 µM.
For the molecule `COc1cc2ccc(CC#N)cc2cc1OC`, the TGI in the experiment with A498 renal, in the experiment with A549 NSCLC, in the experiment with CAKI-1 renal, in the experiment on SF-268 CNS, in the experiment with SNB-19 CNS and in the experiment on UACC-257 melanoma was above 100 µM in each case.
Regarding `CCOC(=O)CNC(SC)=C(C#N)C#N`, the TGI with A498 renal, in the experiment on A549 NSCLC, in the experiment on CAKI-1 renal, in the experiment with COLO 205 colon, in the experiment with SF-268 CNS and in the experiment on SNB-19 CNS was above 100 µM in each case. Moreover, the TGI in the experiment with UACC-257 melanoma and in the experiment with UACC-62 melanoma was above 100 µM throughout.
As to `CC(C)O/C=C1\C(=O)C2(SCCS2)[C@H]2CCCC[C@@H]12`, the TGI with A498 renal was 75 µM; in the experiment with A549 NSCLC, above 100 µM; in the experiment on CAKI-1 renal, above 100 µM; in the experiment with COLO 205 colon it was 33.4 µM; with SF-268 CNS it was above 100 µM; in the experiment with SNB-19 CNS it was above 100 µM. In addition, the TGI with UACC-257 melanoma was above 100 µM; in the experiment on UACC-62 melanoma, 69.4 µM.
Regarding `O=C(N/C(=C\c1ccc([N+](=O)[O-])cc1)c1nc2[nH]c(=S)[nH]c(=O)c2[nH]1)c1ccccc1`, the TGI in the experiment on A549 NSCLC, in the experiment with CAKI-1 renal, in the experiment with COLO 205 colon, in the experiment with SF-268 CNS, with SNB-19 CNS and in the experiment on UACC-62 melanoma was above 100 µM throughout.
As to `C(=C1\CCC/C(=C/c2ccccc2)C1=NNc1ccccc1)/c1ccccc1`, the TGI in the experiment on A498 renal, in the experiment on A549 NSCLC, in the experiment with COLO 205 colon, in the experiment on SF-268 CNS, in the experiment with SNB-19 CNS and in the experiment with UACC-257 melanoma was above 100 µM in each case. In the experiment on UACC-62 melanoma, this molecule gave a TGI above 100 µM.
For `CSC(=S)N(C)NC(=O)c1cccc(C(=O)NN(C)C(=S)SC)n1`, the TGI was above 100 µM in the experiment with A498 renal; 89 µM in the experiment with A549 NSCLC; above 100 µM in the experiment on COLO 205 colon; 43.9 µM in the experiment on SF-268 CNS; above 100 µM in the experiment on SNB-19 CNS; 56.9 µM with UACC-257 melanoma. This molecule returned a TGI with UACC-62 melanoma of 55.8 µM.
As for `COc1cc(NCC(C#N)C#N)ccc1N=Nc1ccc([N+](=O)[O-])cc1`, the TGI in the experiment with A498 renal, with A549 NSCLC, with CAKI-1 renal, in the experiment with COLO 205 colon, with SF-268 CNS and in the experiment on SNB-19 CNS was above 100 µM throughout. Further, the TGI with UACC-257 melanoma and with UACC-62 melanoma was above 100 µM throughout.
For `CC1=C(C(=O)Nc2ccccc2C)C(c2ccc(N(C)C)cc2)C(C(=O)Nc2ccccc2C)=C(C)N1`, the TGI with A498 renal, in the experiment with A549 NSCLC, in the experiment with COLO 205 colon, in the experiment with SF-268 CNS, with SNB-19 CNS and in the experiment with UACC-257 melanoma was above 100 µM throughout. Besides, the TGI with UACC-62 melanoma was above 100 µM.
Take `CCCNC(=O)c1cc2ccccc2cc1C(=O)OC`: the TGI with A498 renal, in the experiment on A549 NSCLC, with CAKI-1 renal, in the experiment with COLO 205 colon, with SF-268 CNS and in the experiment on SNB-19 CNS was above 100 µM in each case. Further, the TGI in the experiment with UACC-257 melanoma and in the experiment with UACC-62 melanoma was above 100 µM each time.
Consider `Cn1c(=O)c(C(c2ccccc2)c2c(O)c3ccccc3n(C)c2=O)c(O)c2ccccc21`, for which the TGI in the experiment on A549 NSCLC, in the experiment with CAKI-1 renal, in the experiment with COLO 205 colon, with SF-268 CNS, in the experiment on SNB-19 CNS and in the experiment on UACC-257 melanoma was above 100 µM throughout. This molecule also returned a TGI with UACC-62 melanoma above 100 µM.
Take `O=C1c2cnccc2Cc2cccc3c2N1c1ccccc1S3`: the TGI was 69.8 µM in the experiment with A498 renal; above 100 µM with A549 NSCLC; 32.6 µM in the experiment on CAKI-1 renal; 59.2 µM in the experiment with COLO 205 colon; above 100 µM in the experiment with SF-268 CNS; 74.6 µM in the experiment on SNB-19 CNS. The TGI was 59 µM in the experiment with UACC-257 melanoma and 41.7 µM with UACC-62 melanoma.
`COc1cc(C2[C@H]3C(=O)N(c4ccc(Cc5ccc(N6C(=O)[C@@H]7ON(c8ccccc8)C(c8cc(OC)c(OC)c(OC)c8)[C@@H]7C6=O)cc5)cc4)C(=O)[C@H]3ON2c2ccccc2)cc(OC)c1OC` (stereo partly specified): the TGI with A498 renal, with A549 NSCLC, with CAKI-1 renal, with COLO 205 colon, with SF-268 CNS and in the experiment with SNB-19 CNS was above 100 µM in each case. For the same molecule, the TGI in the experiment on UACC-257 melanoma and in the experiment with UACC-62 melanoma was above 100 µM each time.
On to `Cc1cn(C2C=CC(=O)C(C)O2)c(=O)[nH]c1=O` (stereo unspecified), for which the TGI is above 100 µM in the experiment with A498 renal; above 100 µM with A549 NSCLC; 31.5 µM in the experiment on CAKI-1 renal; 32 µM in the experiment on COLO 205 colon; 33.5 µM in the experiment with SF-268 CNS; 43.9 µM in the experiment with SNB-19 CNS. Moreover, the results for the TGI in the experiment with UACC-257 melanoma and in the experiment with UACC-62 melanoma were 27.8 µM and 29.1 µM, respectively.
Consider `COc1ccc(-c2cc(-c3ccccc3)c(C#N)c(=O)[nH]2)cc1`, for which the TGI in the experiment with A498 renal, in the experiment with A549 NSCLC, in the experiment on COLO 205 colon, in the experiment on SF-268 CNS, with SNB-19 CNS and in the experiment on UACC-257 melanoma was above 100 µM throughout. In the experiment with UACC-62 melanoma, this molecule showed a TGI above 100 µM.
With `O=C1c2c(c3c4ccccc4n4c3c3c2c2ccccc2n3C/C=C\C4)C(=O)N1Cc1ccccc1`, the TGI in the experiment with A498 renal, with A549 NSCLC, with COLO 205 colon, with SNB-19 CNS, in the experiment with UACC-257 melanoma and in the experiment on UACC-62 melanoma was above 100 µM throughout.
For `OCCc1cnco1`, the TGI in the experiment on A549 NSCLC, in the experiment with COLO 205 colon, in the experiment with SF-268 CNS, in the experiment with SNB-19 CNS and in the experiment on UACC-62 melanoma was above 100 µM throughout.
Consider `CN(C)c1nc(N(C)C)nc(N(C)CN(C)c2nc(N(C)C)nc(N(C)C)n2)n1`, for which the TGI with A498 renal, in the experiment on A549 NSCLC, with CAKI-1 renal, in the experiment with COLO 205 colon, with SF-268 CNS and in the experiment on SNB-19 CNS was above 100 µM throughout. Also, the TGI in the experiment with UACC-257 melanoma and in the experiment on UACC-62 melanoma was above 100 µM in each case.
On to `O=C1C2Cc3ccccc3CN2C(=O)N1CN1CCN(CN2C(=O)C3Cc4ccccc4CN3C2=O)CC1` (stereo unspecified), for which the TGI with A498 renal, in the experiment on A549 NSCLC, in the experiment on CAKI-1 renal, in the experiment with COLO 205 colon, in the experiment with SF-268 CNS and in the experiment with SNB-19 CNS was above 100 µM each time. Also, the TGI with UACC-257 melanoma and in the experiment on UACC-62 melanoma was above 100 µM each time.
As to `CC1SC2=NC3=C(c4ccccc4C3=O)C(c3ccc(Br)cc3)N2C1=O` (stereo unspecified), the TGI with A498 renal, with A549 NSCLC, in the experiment on CAKI-1 renal, with COLO 205 colon, with SF-268 CNS and in the experiment on SNB-19 CNS was above 100 µM in each case. Besides, the TGI in the experiment on UACC-257 melanoma and in the experiment with UACC-62 melanoma was above 100 µM in each case.
Take `CC(C)C(/C=C/c1ccccc1)=N\NC(=O)N/N=C(/C=C/c1ccccc1)C(C)C`: the TGI was above 100 µM in the experiment with A549 NSCLC; 30.6 µM in the experiment on CAKI-1 renal; 44.3 µM with COLO 205 colon; above 100 µM in the experiment on SF-268 CNS; above 100 µM with SNB-19 CNS; above 100 µM with UACC-257 melanoma. Moreover, in the experiment with UACC-62 melanoma, the TGI was above 100 µM.
`CC(=O)Nc1ccc(-c2nnc(SCC(=O)Nc3ccccc3[N+](=O)[O-])o2)cc1`: the TGI with A549 NSCLC, in the experiment on CAKI-1 renal, in the experiment with COLO 205 colon, in the experiment with SF-268 CNS, in the experiment on UACC-257 melanoma and with UACC-62 melanoma was above 100 µM throughout.
For `CC1(C)CCc2cc3c(cc2O1)OC(C)(C)C1c2c(ccc4c2CCC(C)(C)O4)OC31` (stereo unspecified), the TGI with A549 NSCLC, with CAKI-1 renal, in the experiment on COLO 205 colon, in the experiment with SF-268 CNS and in the experiment with UACC-62 melanoma was above 100 µM each time.
As to `COc1ccc2oc(-c3ccncc3)cc(=O)c2c1`, the TGI in the experiment on A498 renal, in the experiment on CAKI-1 renal, in the experiment on COLO 205 colon, with SF-268 CNS, with SNB-19 CNS and in the experiment with UACC-257 melanoma was above 100 µM each time. Also, in the experiment on UACC-62 melanoma, the TGI is above 100 µM.
With `COc1ccc(CNc2nc3ccccc3nc2-c2cccs2)cc1OC`, the TGI in the experiment with A549 NSCLC, with COLO 205 colon, in the experiment on SF-268 CNS, in the experiment on SNB-19 CNS and with UACC-257 melanoma was above 100 µM each time.
Turning to `Cn1cc2ccccc2c1-c1nc(F)nc(Oc2ccc3c(c2)CC[C@@H]2C3CC[C@]3(C)C(O)CCC23)n1` (stereo partly specified), the TGI in the experiment on A549 NSCLC was 48.9 µM; with COLO 205 colon, 44.2 µM; in the experiment on SF-268 CNS, 35.1 µM; in the experiment with SNB-19 CNS it was 34.7 µM; in the experiment with UACC-257 melanoma it was 36.3 µM.
